Reference: ChEMBL document CHEMBL1144906, “Characterization of the 5-HT(7) receptor. Determination of the pharmacophore for 5-HT(7) receptor agonism and CoMFA-based modeling of the agonist binding site” (J Med Chem, 2003)
pKi: −log10 of the molar value. Calls of active or inactive are those of the source. The calls are words filed in the database; no cut-off is given here.

What was measured:
[1] = target: 5-hydroxytryptamine receptor 7 (Rattus norvegicus, UniProt P32305); experiment: Binding affinity at rat 5-hydroxytryptamine 7 receptor.
[2] = target: 5-hydroxytryptamine receptor 7 (Rattus norvegicus) (UniProt P32305); experiment: Agonistic activity against rat 5-HT7 adenyl cyclase expressed by HEK293 cells; type: functional, cell-based
[3] = target: 5-hydroxytryptamine receptor 7 (Rattus norvegicus) (UniProt P32305); experiment: Agonistic activity against rat 5-HT7 adenyl cyclase expressed in HEK293 cells; Active; type: functional, cell-based
[4] = target: 5-hydroxytryptamine receptor 7 (Rattus norvegicus) (UniProt P32305); conditions: HEK293

Chain of 5-hydroxytryptamine receptor 7 (Rattus norvegicus) (P32305 whole entry): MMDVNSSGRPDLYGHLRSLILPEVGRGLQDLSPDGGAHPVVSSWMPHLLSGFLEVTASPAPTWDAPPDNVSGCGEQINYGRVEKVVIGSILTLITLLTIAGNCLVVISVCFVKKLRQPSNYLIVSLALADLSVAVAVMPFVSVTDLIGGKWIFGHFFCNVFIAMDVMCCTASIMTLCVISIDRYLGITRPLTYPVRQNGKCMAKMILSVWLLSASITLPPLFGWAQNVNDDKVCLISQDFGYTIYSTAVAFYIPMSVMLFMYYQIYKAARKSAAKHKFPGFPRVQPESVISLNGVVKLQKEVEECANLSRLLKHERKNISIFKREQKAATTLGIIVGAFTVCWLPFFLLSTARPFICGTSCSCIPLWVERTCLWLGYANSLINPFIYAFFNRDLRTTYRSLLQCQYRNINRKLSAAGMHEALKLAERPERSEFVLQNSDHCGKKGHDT
Chain of 5-hydroxytryptamine receptor 7 (P32305 whole entry): as above

SMILES | pKi [1] | Increase [2] | Increase [3] | Increase [4]
COc1ccc2c(c1)CC[C@@H](N)C2 | 5.80 | 58% |  | 
COc1ccc2[nH]cc(CCN(C)C)c2c1 [MEBUFOTENIN] | 7.40 | 92% |  | 
COc1ccc2cccc(N3CCNCC3)c2c1 | 7.69 | 25% |  | 
COc1ccc2[nH]c(C)c(CCN(C)C)c2c1 | 5.95 | 17% |  | 
CCCN(CCC)[C@@H]1CCc2cccc(OC)c2C1 | 7.47 | 92% |  | 
COc1ccccc1N1CCNCC1 |  |  | Active | 
CCN(CC)[C@@H]1CCc2cccc(OC)c2C1 | 7.06 | 73% |  | 
CN(C)[C@H]1CCc2c(cccc2-c2cccc3ccccc23)C1 | 9.60 |  | Active | 
c1ccc2c(N3CCNCC3)cccc2c1 |  |  | Active | 
COc1cccc2c1C[C@H](N)CC2 | 6.91 | 73% |  | 
Cc1c(NC2=NCCN2)cccc1-c1ccccc1 |  |  | Active | 
CCCN(CCC)[C@H]1CCc2cccc(OC)c2C1 | 6.47 | 99% |  | 
CCCN(CCC)[C@@H]1CCc2cccc(O)c2C1 | 7.34 |  | Active | 
COc1ccc2[nH]cc(CCN)c2c1 |  |  | Active | 
Cc1[nH]c(C)c(-c2cccc3c2CC[C@H](N(C)C)C3)c1C | 9.08 |  | Active | 
NCCc1c[nH]c2ccc(C(N)=O)cc12 |  | 100% |  | 
CCN(CC)C(=O)[C@@H]1C=C2c3cccc4[nH]cc(c34)C[C@H]2N(C)C1 |  |  | Active | 
COc1ccc2[nH]cc(CCN3CCCC3)c2c1 | 6.20 | 39% |  | 
CN(C)CCc1c[nH]c2ccc(O)cc12 [BUFOTENINE] | 8.10 |  | Active | 
NCCc1c[nH]c2ccc(O)cc12 |  |  |  | Active
